Experimental data published in patent US10800792B2, “Inhibitors of Bruton's tyrosine kinase and method of their use” (JANSSEN PHARMACEUTICA NV, priority 2015, dated 2020).

Molecular target: unphosphorylated-BTK kinase domain (UP-BTK), GST-tagged human BTK (389-659aa) (Homo sapiens (Human), UniProt Q06187)
Test: BTK kinase Lanthascreen binding assay
Conditions: Lanthascreen tracer competition, 60 minutes incubation; pIC50 = negative log of the IC50 in molar
Outline: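 Compound binding to the unphosphorylated kinase domain was monitored by displacement of a fluorescently labelled tracer in a Lanthascreen format. Potency is given as pIC50, the negative log of the molar IC50.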

unphosphorylated-BTK kinase domain (UP-BTK), GST-tagged human BTK (389-659aa), sequence (Q06187 389-659): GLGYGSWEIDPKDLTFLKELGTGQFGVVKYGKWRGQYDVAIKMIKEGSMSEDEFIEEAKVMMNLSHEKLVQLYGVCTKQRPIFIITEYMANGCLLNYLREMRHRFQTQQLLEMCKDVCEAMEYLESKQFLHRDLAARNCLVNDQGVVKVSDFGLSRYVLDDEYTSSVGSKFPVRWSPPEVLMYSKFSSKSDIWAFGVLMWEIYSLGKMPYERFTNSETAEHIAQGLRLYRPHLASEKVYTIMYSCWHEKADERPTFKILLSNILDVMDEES

| SMILES | BTK_I_binding pIC50 |
| --- | --- |
| CC(C)(C)OC(=O)N1CCC[C@@H](NC(=O)c2sc3nccc4c3c2NC(=O)N4c2ccc(OC(C)(C)C)cc2)C1 [Example 652, (R)-tert-Butyl 3-(5-(4-(tert-butoxy)phenyl)-4-oxo-4,5-dihydro-3H-1-thia-3,5,8-triazaacenaphthylene-2-carboxamido)piperidine-1-carboxylate] | <5 |
| O=C(N[C@@H]1CCCNC1)c1sc2nccc3c2c1NC(=O)N3c1cccc(Oc2ccccc2)n1 [Example 645, (R)-4-Oxo-5-(6-phenoxypyridin-2-yl)-N-(piperidin-3-yl)-4,5-dihydro-3H-1-thia-3,5,8-triazaacenaphthylene-2-carboxamide] | <5 |
| Cc1ccc(OC(C)C)cc1N1C(=O)Nc2c(C(=O)N[C@@H]3CCCNC3)sc3nccc1c23 [Example 644, (R)-5-(5-Isopropoxy-2-methylphenyl)-4-oxo-N-(piperidin-3-yl)-4,5-dihydro-3H-1-thia-3,5,8-triazaacenaphthylene-2-carboxamide] | <5 |
| C=CC(=O)N1CCC[C@@H](NC(=O)c2sc3nccc4c3c2NC(=O)N4c2ccc(Oc3cccc(C)n3)cc2)C1 [Example 775, (R)—N-(1-Acryloylpiperidin-3-yl)-5-(4-((6-methylpyridin-2-yl)oxy)phenyl)-4-oxo-4,5-dihydro-3H-1-thia-3,5,8-triazaacenaphthylene-2-carboxamide] | 7.5 |
| O=C(N[C@@H]1CCNC1)c1sc2nccc3c2c1NC(=O)N3c1ccnc(-c2ccccc2)c1 [Example 602, (R)-4-Oxo-5-(2-phenylpyridin-4-yl)-N-(pyrrolidin-3-yl)-4,5-dihydro-3H-1-thia-3,5,8-triazaacenaphthylene-2-carboxamide] | 6.4 |
| C=CC(=O)N1CCC[C@@H](NC(=O)c2sc3nccc4c3c2NC(=O)N4c2ccc(OC(C)C)nc2C)C1 (single isomer, unassigned) [Example 753, (R)—N-(1-Acryloylpiperidin-3-yl)-5-(*S)-(6-isopropoxy-2-methylpyridin-3-yl)-4-oxo-4,5-dihydro-3H-1-thia-3,5,8-triazaacenaphthylene-2-carboxamide] | 6.2 |

Same assay, conditions: Lanthascreen tracer competition, 60 minutes incubation; pIC50 = negative log of the IC50 in molar; read-out: BTK_I_binding pIC50 (converted)

| SMILES | IC50 [µM] |
| --- | --- |
| O=C(N[C@@H]1CCCNC1)c1sc2nccc3c2c1NC(=O)N3c1cccc(C2CCCCC2)c1 [Example 629, (R)-5-(3-Cyclohexylphenyl)-4-oxo-N-(piperidin-3-yl)-4,5-dihydro-3H-1-thia-3,5,8-triazaacenaphthylene-2-carboxamide] | 1.26 |
| CC(C)(C)OC(=O)N1CC[C@@H](NC(=O)c2sc3nccc4c3c2NC(=O)N4c2ccc(Oc3ccccc3)cc2)[C@H](O)C1 (relative stereo) [Example 617, trans-tert-Butyl 3-hydroxy-4-(4-oxo-5-(4-phenoxyphenyl)-4,5-dihydro-3H-1-thia-3,5,8-triazaacenaphthylene-2-carboxamido)piperidine-1-carboxylate] | 1 |

Same assay, conditions: pIC50 = negative log of the IC50 in molar; 60 minutes incubation, 50 nM Tracer 236

| SMILES | BTK_I_binding pIC50 |
| --- | --- |
| Cc1cc(Oc2ccccc2C(F)(F)F)ccc1N1C(=O)Nc2c(C(=O)N[C@@H]3CCCN(C)C3)sc3nccc1c23 [Example 242, (R)-5-(2-Methyl-4-(2-(trifluoromethyl)phenoxy)phenyl)-N-(1-methylpiperidin-3-yl)-4-oxo-4,5-dihydro-3H-1-thia-3,5,8-triazaacenaphthylene-2-carboxamide] | 6.7 |
| CCO/C=C/C(=O)N1CCC[C@@H](NC(=O)c2sc3nccc4c3c2NC(=O)N4c2ccc(Oc3ccccc3)cc2C)C1 (mixture of isomers) [Example 221, (R,E)-N-(1-(3-Ethoxyacryloyl)piperidin-3-yl)-5-(2-methyl-4-phenoxyphenyl)-4-oxo-4,5-dihydro-3H-1-thia-3,5,8-triazaacenaphthylene-2-carboxamide] | 6.9 |
| C=CC(=O)N1CCC[C@@H](NC(=O)c2sc3nccc4c3c2NC(=O)N4c2ccc(C)cc2)C1 [Example 271, (R)—N-(1-Acryloylpiperidin-3-yl)-4-oxo-5-(p-tolyl)-4,5-dihydro-3H-1-thia-3,5,8-triazaacenaphthylene-2-carboxamide] | 6.3 |
| C=CC(=O)N1CC[C@@H](N(C)C(=O)c2sc3nccc4c3c2NC(=O)N4c2ccc(Oc3ccccc3)cc2C)C1 [Example 137, (R)—N-(1-Acryloylpyrrolidin-3-yl)-N-methyl-5-(2-methyl-4-phenoxyphenyl)-4-oxo-4,5-dihydro-3H-1-thia-3,5,8-triazaacenaphthylene-2-carboxamide] | 6.6 |
| C=CC(=O)N1CC[C@@H](NC(=O)c2sc3nccc4c3c2NC(=O)N4c2c(C)cc(Oc3ccccc3)cc2F)C1 [Example 45, (R)—N-(1-Acryloylpyrrolidin-3-yl)-5-(2-fluoro-6-methyl-4-phenoxyphenyl)-4-oxo-4,5-dihydro-3H-1-thia-3,5,8-triazaacenaphthylene-2-carboxamide] | 7.1 |
| C=CC(=O)N1CCC[C@@H](NC(=O)c2sc3nccc4c3c2NC(=O)N4c2ccc(C)cc2C)C1 [Example 86, (R)—N-(1-Acryloylpiperidin-3-yl)-5-(2,4-dimethylphenyl)-4-oxo-4,5-dihydro-3H-1-thia-3,5,8-triazaacenaphthylene-2-carboxamide] | 6.7 |
| CCC(=O)N1CCC[C@@H](NC(=O)c2sc3nccc4c3c2NC(=O)N4c2ccc(Oc3ccccc3)cc2C)C1 (single isomer, unassigned) [Example 184, (R)-5-(*S)-(2-Methyl-4-phenoxyphenyl)-4-oxo-N-(1-propionylpiperidin-3-yl)-4,5-dihydro-3H-1-thia-3,5,8-triazaacenaphthylene-2-carboxamide] | 7.4 |
| COCCC(=O)N1CC(NC(=O)c2sc3nccc4c3c2NC(=O)N4c2ccc(Oc3ccccc3)cc2C)C1 [Example 246, N-(1-(3-Methoxypropanoyl)azetidin-3-yl)-5-(2-methyl-4-phenoxyphenyl)-4-oxo-4,5-dihydro-3H-1-thia-3,5,8-triazaacenaphthylene-2-carboxamide] | 6.5 |

Same assay, conditions: unphosphorylated-BTK kinase domain, 50 nM Tracer 236, 60 minutes; pIC50 = negative log of the IC50 in molar

| SMILES | BTK_I_binding pIC50 |
| --- | --- |
| C=CC(=O)N1CCC[C@@H](NC(=O)c2sc3nccc4c3c2NC(=O)N4c2cccc(C(C)=O)c2)C1 [Example 566, (R)-5-(3-Acetylphenyl)-N-(1-acryloylpiperidin-3-yl)-4-oxo-4,5-dihydro-3H-1-thia-3,5,8-triazaacenaphthylene-2-carboxamide] | 6.6 |
| Cc1cc(Oc2ccccc2)c(F)cc1N1C(=O)Nc2c(C(=O)N[C@@H]3CCCN(C)C3)sc3nccc1c23 [Example 303, (R)-5-(5-Fluoro-2-methyl-4-phenoxyphenyl)-N-(1-methylpiperidin-3-yl)-4-oxo-4,5-dihydro-3H-1-thia-3,5,8-triazaacenaphthylene-2-carboxamide] | 6.0 |
| CNCC(=O)N1CC[C@@H](NC(=O)c2sc3nccc4c3c2NC(=O)N4c2ccc(Oc3ccccc3)cc2C)C1 [Example 391, (R)-5-(2-Methyl-4-phenoxyphenyl)-N-(1-(2-(methylamino)acetyl)pyrrolidin-3-yl)-4-oxo-4,5-dihydro-3H-1-thia-3,5,8-triazaacenaphthylene-2-carboxamide] | 7.2 |
| Cc1cc(Oc2ccccc2)ccc1N1C(=O)Nc2c(C(=O)NCCC3CCCN3C)sc3nccc1c23 (centres unmarked) [Example 298, 5-(2-Methyl-4-phenoxyphenyl)-N-(2-(1-methylpyrrolidin-2-yl)ethyl)-4-oxo-4,5-dihydro-3H-1-thia-3,5,8-triazaacenaphthylene-2-carboxamide] | 6.1 |

Same assay, conditions: unphosphorylated-BTK kinase domain, 50 nM Tracer 236, 60 minutes; pIC50 = negative log of the IC50 in molar; read-out: BTK_I_binding pIC50 (converted)

| SMILES | IC50 [µM] |
| --- | --- |
| [2H]c1c([2H])c([2H])c(Oc2ccc(N3C(=O)Nc4c(C(=O)N[C@@H]5CCCN(C)C5)sc5nccc3c45)c(C)c2)c([2H])c1[2H] [Example 381, (R)-5-(2-Methyl-4-(2,3,4,5,6-pentadeuteriophenoxy)phenyl)-N-(1-methylpiperidin-3-yl)-4-oxo-4,5-dihydro-3H-1-thia-3,5,8-triazaacenaphthylene-2-carboxamide] | 0.0794 |

Same assay, conditions: unphosphorylated-BTK kinase domain, 60 minutes incubation, 50 nM Tracer 236; pIC50 = negative log of the IC50 in molar

| SMILES | BTK_I_binding pIC50 |
| --- | --- |
| O=C(NC1CCOCC1)c1sc2nccc3c2c1NC(=O)N3c1ccc(Oc2ccccc2)cc1 [Example 909, 4-Oxo-5-(4-phenoxyphenyl)-N-(tetrahydro-2H-pyran-4-yl)-4,5-dihydro-3H-1-thia-3,5,8-triazaacenaphthylene-2-carboxamide] | 6.7 |
| Cc1cc(Oc2ccccc2)ccc1N1C(=O)Nc2c(C(=O)N[C@H]3CCCNC3)sc3nccc1c23 [Example 912, (S)-5-(2-Methyl-4-phenoxyphenyl)-4-oxo-N-(piperidin-3-yl)-4,5-dihydro-3H-1-thia-3,5,8-triazaacenaphthylene-2-carboxamide] | 6.5 |
| CN1CCN(CCNC(=O)c2sc3nccc4c3c2NC(=O)N4c2ccc(Oc3ccccc3)cc2)CC1 [Example 935, N-(2-(4-Methylpiperazin-1-yl)ethyl)-4-oxo-5-(4-phenoxyphenyl)-4,5-dihydro-3H-1-thia-3,5,8-triazaacenaphthylene-2-carboxamide] | 6.0 |
| CN1CCC(NC(=O)c2sc3nccc4c3c2NC(=O)N4c2ccc(Oc3ccccc3)cc2)CC1 [Example 920, N-(1-Methylpiperidin-4-yl)-4-oxo-5-(4-phenoxyphenyl)-4,5-dihydro-3H-1-thia-3,5,8-triazaacenaphthylene-2-carboxamide] | 6.4 |
| Cc1cc(Oc2ccccc2)ccc1N1C(=O)Nc2c(C(=O)N[C@H]3CCN(C(=O)/C(C#N)=C/C4CC4)C3)sc3nccc1c23 [Example 905, (S,E)-N-(1-(2-Cyano-3-cyclopropylacryloyl)pyrrolidin-3-yl)-5-(2-methyl-4-phenoxyphenyl)-4-oxo-4,5-dihydro-3H-1-thia-3,5,8-triazaacenaphthylene-2-carboxamide] | 6.7 |
